Assay results from US20200038399A1, “FORMULATIONS, METHODS, KIT, AND DOSAGE FORMS FOR TREATING BACTERIAL INFECTION” (Motif BioSciences Inc., priority 2016, published 2020).

Experiments:
S. aureus 101 [1] = test: checkerboard synergy assay with iclaprim; assay type: cell-based, Staphylococcus aureus; details: antibiotic in combination with iclaprim
Description: (§1) The synergistic potential of iclaprim against Gram-positive and Gram-negative bacteria was determined using the checkerboard assay as described in Eliopoulos GM and Moellering, Jr. RC (1991), Antimicrobial combinations, pp. 432-492, in V. Lorian (ed.), Antibiotics in laboratory medicine, 3rd Ed., The Williams & Wilkins Co., Baltimore, the entire disclosure of which is herein incorporated by reference, allowing multiple test concentrations of iclaprim to be assayed in the presence of various concentrations of the other antibiotic in microtiter plates. The same growth media and conditions were used as described in 3.2 below.
(§2) Two different dilutions were used for iclaprim depending on the MIC determined for the bacterium. […] Iclaprim and the other antibiotic being tested were also dispensed alone in the last row and in the last column, respectively, as controls.
(§3) The Fractional Inhibitory Concentrations (FIC) for each added agent were calculated and used to determine the sum of FIC (ΣFIC) indicative of the synergistic potential of a given combination as described in Veyssier P. (1999), Inhibiteurs de la dihydrofolate reductase, nitrohétérocycles (furanes) et 8-hydroxyquinoleines, pp. 995-1027, in A. Bryskier (ed.), Antibiotiques agents antibatériens et antifongiques, 1st Ed., Ellipses Edition Marketing SA, Paris, the entire disclosure of which is herein incorporated by reference. Synergy was defined whereby the ΣFIC was <0.5, indifference (no synergy nor antagonism) whereby ΣFIC was ≥0.5 but ≤4, and antagonism whereby ΣFIC was >4. Additivity as a special form of indifference was defined whereby the ΣFIC was ≥0.5 but <1, for example as described in Stevens, D L et al. (1998), In vitro antimicrobial effects of various combinations of penicillin and clindamycin against four strains of Streptococcus pyogenes, J. Antimicrob. Chemother. 42: 1266-1268, the entire disclosure of which is herein incorporated by reference.

S. aureus 101 [2] = test: MIC determination; assay type: cell-based, Staphylococcus aureus; details: for MIC: Staphylococcus aureus, 101, 18 h, read-out: Minimum inhibitory concentrations (MIC); for Minimum inhibitory concentrations (MIC): S. aureus 101, 18 hours at 37° C.
Description: (§4) Minimum inhibitory concentration (MIC) determination.
(§5) In order to choose the appropriate concentrations to be tested in the checkerboard experiments, minimum inhibitory concentrations (MICs) were determined first. […] Table 6) in microtiter plates. Stock solutions (10 mg/ml) of reference antibiotics were prepared in DMSO (except for tobramycin, gentamicin, lomefloxacin, tetracycline) and stored at 4° C. The bacteria were grown in Mueller-Hinton Broth (BBL Mueller-Hinton Broth II, cation adjusted). S. pneumoniae was grown in Mueller-Hinton Broth supplemented with 5% (v/v) lysed sheep blood. For the growth of H. influenzae HTM (Haemophilus test medium) was used containing Mueller-Hinton broth, yeast extract ([…], Difco) and supplemented with NAD and hematin (HTM Supplement, Oxoid SR0158E). M. catarrhalis was grown in Brain Heart Infusion medium (Oxoid). The bacteria were incubated for 18 hours at 37° C. in ambient air except for S. pneumoniae, H. influenzae and M. catarrhalis, which were incubated in the presence of 5% CO2. The MIC was determined as the lowest concentration of an individual drug that lead to no visible growth.

[3] = tested on: Moraxella catarrhalis RA 21; test: MIC determination; assay type: cell-based; details: M. catarrhalis RA 21, 18 hours at 37° C., 5% CO2; for MIC: Moraxella catarrhalis, RA21, read-out: Minimum inhibitory concentrations (MIC)
Description: as §4, §5

[4] = tested on: Klebsiella pneumoniae ATCC 33495; test: MIC determination; assay type: cell-based; details: K. pneumonia 33495, 18 hours at 37° C.; for MIC: Klebsiella pneumoniae, ATCC33495, read-out: Minimum inhibitory concentrations (MIC)
Description: as §4, §5

[5] = tested on: Staphylococcus aureus ATCC 25923; test: MIC determination; assay type: cell-based; details: S. aureus 25923, 18 hours at 37° C.; for MIC: Staphylococcus aureus, ATCC25923, read-out: Minimum inhibitory concentrations (MIC)
Description: as §4, §5

[6] = tested on: Streptococcus pneumoniae ATCC 49619; test: MIC determination; assay type: cell-based; details: S. pneumoniae 49619, 18 hours at 37° C., 5% CO2; for MIC: Streptococcus pneumoniae, ATCC49619, read-out: Minimum inhibitory concentrations (MIC)
Description: as §4, §5

[7] = tested on: Haemophilus influenzae ATCC 49766; test: MIC determination; assay type: cell-based; details: H. Influenza 49766, 18 hours at 37° C., 5% CO2; for MIC: Haemophilus influenzae, ATCC49766, read-out: Minimum inhibitory concentrations (MIC)
Description: as §4, §5

S. pneumoniae 1/1 [8] = test: checkerboard synergy assay with iclaprim; assay type: cell-based, Streptococcus pneumoniae; details: antibiotic in combination with iclaprim
Description: as §1, §2, §3

[9] = tested on: Moraxella catarrhalis RA 21; test: checkerboard synergy assay with iclaprim; assay type: cell-based; details: antibiotic in combination with iclaprim; M. catarrhalis RA 21
Description: as §1, §2, §3

[10] = tested on: Klebsiella pneumoniae ATCC 33495; test: checkerboard synergy assay with iclaprim; assay type: cell-based; details: antibiotic in combination with iclaprim; K. pneumoniae 33495
Description: as §1, §2, §3

[11] = tested on: Staphylococcus aureus ATCC 25923; test: checkerboard synergy assay with iclaprim; assay type: cell-based; details: antibiotic in combination with iclaprim; S. aureus 25923
Description: as §1, §2, §3

[12] = tested on: Streptococcus pneumoniae ATCC 49619; test: checkerboard synergy assay with iclaprim; assay type: cell-based; details: antibiotic in combination with iclaprim; S. pneumoniae 49619
Description: as §1, §2, §3

[13] = tested on: Haemophilus influenzae ATCC 49766; test: checkerboard synergy assay with iclaprim; assay type: cell-based; details: antibiotic in combination with iclaprim; H. influenzae 49766
Description: as §1, §2, §3

S. pneumoniae 1/1 [14] = test: MIC determination; assay type: cell-based, Streptococcus pneumoniae; details: S. pneumoniae 1/1, 18 hours at 37° C., 5% CO2; for MIC: Streptococcus pneumoniae, read-out: Minimum inhibitory concentrations (MIC)
Description: as §4, §5

Compound | Σ FIC (S. aureus 101 [1]) | MIC (S. aureus 101 [2]) | MIC [3] | MIC [4] | MIC [5] | MIC [6] | MIC [7] | Σ FIC (S. pneumoniae 1/1 [8]) | Con (Conclusion) [9] | Σ FIC [9] | Con (Conclusion) [10] | Σ FIC [10] | Σ FIC [11] | Σ FIC [12] | Con (Conclusion) [13] | Σ FIC [13] | MIC (S. pneumoniae 1/1 [14]) | Con (Conclusion) (S. aureus 101 [1]) | Minimum inhibitory concentrations (MIC) (S. aureus 101 [2]) | Minimum inhibitory concentrations (MIC) [3] | further results
CC[C@H]1OC(=O)[C@H](C)[C@@H](O[C@H]2C[C@@](C)(OC)[C@@H](O)[C@H](C)O2)[C@H](C)[C@@H](O[C@@H]2O[C@H](C)C[C@H](N(C)C)[C@H]2O)[C@](C)(O)C[C@@H](C)/C(=N\OCOCCOC)[C@H](C)[C@@H](O)[C@]1(C)O [Roxithromycin] | 1.01-1.80 | > 128 mg/L | 0.25 mg/L | > 128 mg/L | 1 mg/L | 0.5 mg/L | 16 mg/L | 0.75-1.13 | Ind (Indifference (Ind)) | 1.03-1.50 | Ind (Indifference (Ind)) | 1.01-1.50 | 1.06-1.50 | 1.02-1.50 | Ind (Indifference (Ind)) | 1.03-1.50 | 0.5 mg/L |  |  |  | 
Gentamicin | 1.01-1.50 |  |  |  |  |  |  | 1.06-1.50 | Ind (Indifference (Ind)) | 1.00-1.25 | Ad (Additivity (Ad)) | 0.63-1.25 | 2.05-2.48 | 0.75-1.13 | Ind (Indifference (Ind)) | 1.02-1.13 |  | Ind (Indifference (Ind)) | >128 mg/L | 2 mg/L | Minimum inhibitory concentrations (MIC) [4]: 1 mg/L; Minimum inhibitory concentrations (MIC) [5]: 0.5 mg/L; Minimum inhibitory concentrations (MIC) [6]: 32 mg/L; Minimum inhibitory concentrations (MIC) [7]: 2 mg/L; Con (Conclusion) (S. pneumoniae 1/1 [8]): Ind (Indifference (Ind)); Con (Conclusion) [11]: Ind (Indifference (Ind)); Con (Conclusion) [12]: Ad (Additivity (Ad)); Minimum inhibitory concentrations (MIC) (S. pneumoniae 1/1 [14]): 32 mg/L
CC1(C)S[C@@H]2[C@H](NC(=O)Cc3ccccc3)C(=O)N2[C@H]1C(=O)O [Penicillin G] | 1.00-1.25 |  |  |  |  |  |  | 0.75-1.13 | Ind (Indifference (Ind)) | 1.13-1.50 | Ad (Additivity (Ad)) | 0.52-1.25 | 1.00-1.25 | 1.00-1.25 | Ind (Indifference (Ind)) | 1.03-1.50 |  | Ind (Indifference (Ind)) | 128 mg/L | 16 mg/L | Minimum inhibitory concentrations (MIC) [4]: 128 mg/L; Minimum inhibitory concentrations (MIC) [5]: 0.031 mg/L; Minimum inhibitory concentrations (MIC) [6]: 0.25 mg/L; Minimum inhibitory concentrations (MIC) [7]: 0.25 mg/L; Con (Conclusion) (S. pneumoniae 1/1 [8]): Ad (Additivity (Ad)); Con (Conclusion) [11]: Ind (Indifference (Ind)); Con (Conclusion) [12]: Ind (Indifference (Ind)); Minimum inhibitory concentrations (MIC) (S. pneumoniae 1/1 [14]): 4 mg/L
CCC[C@@H]1C[C@@H](C(=O)N[C@@H]([C@H]2O[C@H](SC)[C@H](O)[C@@H](O)[C@H]2O)[C@H](C)Cl)N(C)C1 [Clindamycin] | 2.03-2.50 | 0.25 mg/L | 4 mg/L | > 128 mg/L | 0.25 mg/L | 0.125 mg/L | 8 mg/L | 0.63-1.06 | Ind (Indifference (Ind)) | 1.00-1.25 | Ind (Indifference (Ind)) | 1.01-1.50 | 2.02-2.48 | 1.00-1.25 | Ind (Indifference (Ind)) | 1.13-1.50 | 0.125 mg/L |  |  |  | 
C[C@H]1c2cccc(O)c2C(=O)C2=C(O)[C@]3(O)C(=O)C(C(N)=O)=C(O)[C@@H](N(C)C)[C@@H]3[C@@H](O)[C@@H]21 [Doxycycline] | 1.06-1.50 | 16 mg/L | 0.5 mg/L | > 128 mg/L | 0.5 mg/L | 0.5 mg/L | 0.5 mg/L | 1.25-1.50 | Ind (Indifference (Ind)) | 1.02-1.50 | Ind (Indifference (Ind)) | 1.01-1.50 | 1.02-1.50 | 1.02-1.51 | Ind (Indifference (Ind)) | 1.00-1.00 | 2 mg/L |  |  |  | 
Cc1onc(-c2ccccc2)c1C(=O)N[C@@H]1C(=O)N2[C@@H]1SC(C)(C)[C@@H]2C(=O)O [Oxacillin] | 1.00-1.25 | 8 mg/L | 32 mg/L | > 128 mg/L | 0.125 mg/L | 2 mg/L | 16 mg/L | 1.06-1.50 | Ind (Indifference (Ind)) | 1.06-1.50 | Ind (Indifference (Ind)) | 1.01-1.50 | 1.06-1.50 | 1.06-1.50 | Ind (Indifference (Ind)) | 1.00-1.25 | 32 mg/L |  |  |  | 
